In data set [1] the test system is human epidermal melanocytes (HEMs). Put plainly: Melanin synthesis in HEMs stimulated by L-tyrosine. The following applies: 1.0 mM L-tyrosine, repeated treatment for 6 days. The class given is cell-based. The method, then: (§1) Melanogenesis in HEMs was determined as previously described. Cells were pretreated with test material for 60 min, and then melanogenesis was stimulated by adding L-tyrosine (1.0 mM). Media were replaced every other day, and cells were cultured for 6 days. Intracellular melanin was extracted using 0.1 M NaOH at 60°C for 60 min, quantified by measuring absorbance at 490 nm, and normalized for protein content using the Bio-Rad DC assay. Cell viabilities were determined using 3-[4,5-dimethylthiazol-2-yl]-2,5-diphenyltetrazolium bromide.

The test system is the same in data set [2]. Put plainly: Cell viability of HEMs (MTT). The class given is cell-based. The following applies: repeated treatment for 6 days. The protocol:
as §1

Data set [3] has as its target T1, murine TYR (Mus musculus, UniProt P11344).
T1 sequence (P11344 19-533): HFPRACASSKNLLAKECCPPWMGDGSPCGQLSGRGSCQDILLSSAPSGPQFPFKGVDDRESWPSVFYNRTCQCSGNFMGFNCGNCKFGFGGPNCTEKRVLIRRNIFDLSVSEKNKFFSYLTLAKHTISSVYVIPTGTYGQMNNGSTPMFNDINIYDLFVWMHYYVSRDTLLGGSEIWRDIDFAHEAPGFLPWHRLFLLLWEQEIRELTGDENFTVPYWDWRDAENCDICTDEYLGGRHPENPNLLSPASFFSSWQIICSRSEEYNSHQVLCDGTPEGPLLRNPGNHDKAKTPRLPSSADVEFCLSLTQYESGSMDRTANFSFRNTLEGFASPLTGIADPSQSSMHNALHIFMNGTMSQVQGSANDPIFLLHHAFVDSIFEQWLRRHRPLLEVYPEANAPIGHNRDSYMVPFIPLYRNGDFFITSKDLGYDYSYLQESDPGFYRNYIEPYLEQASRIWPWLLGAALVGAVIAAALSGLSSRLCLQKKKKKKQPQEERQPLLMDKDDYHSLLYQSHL
Put plainly: In vitro TYR activity assay with lysates of murine B16/F10 cells. The data set is classed as biochemical.

The target in data set [4] is T2, human TYR (Homo sapiens, UniProt P14679).
T2 construct: expressed in transfected cells
T2 sequence (P14679 19-529): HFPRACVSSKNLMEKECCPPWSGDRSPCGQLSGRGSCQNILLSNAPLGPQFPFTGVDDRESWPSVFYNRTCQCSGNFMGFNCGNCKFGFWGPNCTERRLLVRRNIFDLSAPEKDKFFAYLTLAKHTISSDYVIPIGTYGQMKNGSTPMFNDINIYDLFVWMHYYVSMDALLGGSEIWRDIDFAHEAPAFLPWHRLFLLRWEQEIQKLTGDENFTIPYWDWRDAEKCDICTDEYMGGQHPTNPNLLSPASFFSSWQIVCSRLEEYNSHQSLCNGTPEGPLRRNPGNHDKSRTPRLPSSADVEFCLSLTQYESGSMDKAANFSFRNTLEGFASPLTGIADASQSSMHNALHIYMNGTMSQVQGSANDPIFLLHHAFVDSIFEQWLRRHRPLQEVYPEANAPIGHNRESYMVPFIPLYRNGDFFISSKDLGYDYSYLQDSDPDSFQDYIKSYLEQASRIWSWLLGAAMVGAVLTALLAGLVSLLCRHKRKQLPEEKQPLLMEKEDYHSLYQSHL
Description: In vitro TYR activity assay with lysates of HEK293-TYR cells. The data set is classed as biochemical. Conditions: for IC50: lysates of HEK293-TYR cells, read-out: IC50 against human TYR activity (converted).

For data set [5], the target named is T1, murine TYR. On the set-up: method as in Kim et al. [29]. The following applies: at 100 µM or 22.8 µg mL^−1; ref Kim et al. [29]; cited from earlier work.
The next data set concerns mushroom TYR. Put plainly: In vitro mushroom TYR activity assay. The class given is biochemical. Conditions: compared with human and murine TYRs. The method, then: In vitro TYR assays were run for human, murine, and mushroom TYRs. The lysates of HEK293-TYR cells were used as a human TYR preparation in most experiments. In some experiments, the lysates of murine B16/F10 cells (Figure 5), HEK293 cells, and HEMs (Figure 6) were used for comparative purposes. Mushroom TYR was purchased from Sigma-Aldrich. The reaction mixture (200 μL) containing either cell lysates (40 μg protein) or mushroom TYR (20 U) and 0.5 mM L-tyrosine, 1 μM DOPA in 100 mM sodium phosphate buffer (pH 6.8) was placed on a 96-well microplate and incubated at 37°C. The formation of DOPA chrome was monitored by measuring absorbance at 490 nm with a BioRad Model 680 microplate reader (Bio-Rad Laboratories, Inc., Hercules, CA, USA). Assays were also run in the absence of TYR enzyme to correct for potential nonenzymatic reactions. Samples and reference inhibitors were included in reaction mixtures at different concentrations.

The target of data set [6] is T2, human TYR. Put plainly: In vitro TYR activity assay with lysates of HEMs. Conditions: read-out: IC50 against human TYR activity (converted). The class given is biochemical. The protocol: Human epidermal melanocytes (HEMs), derived from moderately pigmented neonatal foreskins, were obtained from Cascade Biologics (Portland, OR, USA). Cells were grown in Medium 254 supplemented with human melanocyte growth supplement (Cascade Biologics) and antibiotics. HEK293 cells and murine melanoma B16/F10 cells (CRL-6475) were obtained from the American Type Culture Collection (Manassas, VA, USA). HEK 293 cells were transformed into HEK293-TYR cells stably expressing human TYR, as previously described. HEK293 cells, HEK293-TYR cells, and murine melanoma B16/F10 cells were cultured in growth medium (Dulbecco's minimum Eagle's medium (DMEM) containing 10% fetal bovine serum and antibiotics (100 U mL^−1 penicillin, 0.1 mg mL^−1 streptomycin, and 0.25 µg mL^−1 amphotericin B)). Cells were cultured at 37°C in a humidified atmosphere containing 5% CO2 and 95% air. Cells were lysed in ice-cold lysis buffer (10 mM Tris-Cl, pH 7.4, 120 mM NaCl, 25 mM KCl, 2.0 mM EGTA, 1.0 mM EDTA, and 0.5% Triton X-100 and protease inhibitor cocktail) and centrifuged at 13,000 ×g for 15 min at 4°C to obtain clear supernatants which were used as cell lysates.
In vitro TYR assays were run for human, murine, and mushroom TYRs. […] The formation of DOPA chrome was monitored by measuring absorbance at 490 nm with a BioRad Model 680 microplate reader (Bio-Rad Laboratories, Inc., Hercules, CA, USA). […]

Data set [7] addresses T1, murine TYR. On the set-up: method as in Yanagihara et al. [30]. The following applies: ref Yanagihara et al. [30]; read-out: IC50 against murine TYR (converted); cited from earlier work.
[8] abbreviates: read-out: IC50 against murine TYR activity (converted).

Structures are written as SMILES. Where “and” joins values, the source holds several entries; their conditions need not be identical. Equal values may be shown once. Entries after “also recorded” stand apart in the source; their conditions may differ. Read-outs that look alike come from different tables or passages of the source.

Consider `O=C(O)/C=C/c1ccc(O)cc1` [p-coumaric acid, reference compound], for which the “effect on melanin synthesis in HEMs” value in data set [1] is recorded as “dose dependently attenuated”. Also, the “cytotoxic effect in HEMs” value in data set [2] (at 100 µM) is listed as “only a little cytotoxic effect”. The results for the IC50 at murine TYR [3] (setting [8]) and on human TYR [4] were 12.2 µM and 4.02 µM, respectively.
As to `Oc1ccc(/C=C/c2cc(O)cc(O)c2)cc1` [resveratrol], the results for the “effect on melanin synthesis in HEMs” value in data set [1] and in data set [1] (listed as Resveratrol) were “dose dependently attenuated; also recorded: reduce melanin synthesis in HEMs at subtoxic concentrations” and “inhibited melanin synthesis by human epidermal melanocytes at subtoxic concentrations”, respectively. Also, the “concentration causing cytotoxicity in HEMs” value in data set [2] is “above 10 µM”. Besides, the IC50 (in general, the point on the concentration scale where inhibition reaches its midpoint) at murine TYR [3] (dose-response curve at low concentration range, read-out: IC50 against murine TYR) was 4.3 µM; on murine TYR [3] (setting [8]), 4.38 µM; at human TYR [4], 1.71 µM and 1.7 µM; on human TYR [6], 5.3 µM and 5.26 µM; on murine TYR [7] it was 10.1 µM. The “inhibition of murine TYR” value on murine TYR [5] is given as 32.7%. Further, in the data set on mushroom TYR, the “effect on mushroom TYR activity” value is “much smaller effect on mushroom TYR activity; also recorded: very low”. Moreover, on human TYR [4] (at 10~30 µg mL^−1, lysates of HEK293-TYR cells and HEMs), the “inhibition of human TYR activity” value is 80~90%.

The record behind these values is PMC3583093 (Evidence-based Complementary and Alternative Medicine : eCAM, 2013).
